Data from a melting point compilation (Tetko et al.; mined from patent text by program, amines drawn as free bases though some values may be those of a salt).

Compound	melting point [°C]
CC(C)(COc1ccc2ncnn2n1)CS(N)(=O)=O	181 to 184
Cc1c(C#N)n(-c2ccc(Cl)cc2)c(=O)n1C	138 to 140
COC(=O)C1(OC)CC(C)C(=O)C=C1O (configuration not stated)	117 to 118
CCC(CC)NC(=O)n1nc(Oc2c(Cl)cc(C(F)(F)F)cc2Cl)cc1C	65 to 67
COc1ccc(CCCCCCN)cc1	63 to 65
CC(C)N(CCc1c[nH]c2cc(Cl)ccc12)Cc1cccc(OCC(F)(F)C(F)(F)F)c1	77 to 80.2
CS(=O)(=O)c1ccc(C(=O)O)c(Cl)c1OC1COC1	180 to 183
Cn1cc(Sc2ccccc2)c(=O)c(-c2ccccc2)c1	164 to 165
Clc1c(CN[C@H]2CC[C@@H](c3ccccc3)CC2)ccn2c(CC3CC3)nnc12	171
CC(C)(C)c1ccc(-n2cnnc2C(F)(F)F)cc1	134
COc1cc(C=NN(C)C)c([N+](=O)[O-])cc1OC	143 to 145
Nc1nc(C(F)(F)F)cc(=O)n1N	215 to 218
Nc1cc(C#Cc2ccccc2)c(-c2cc([N+](=O)[O-])c(N)cc2C#Cc2ccccc2)cc1[N+](=O)[O-]	252 to 253
O=C1CSCC(=O)NCCNCCN1	206 to 208
CC(=O)N1CCCCc2ccc(C(=O)CCN(C)C)cc21	68 to 70
O=S(=O)(O)CCCCCCN1CCN(Cc2ccccc2)CC1	228 to 230
COC(=O)C(O)Cc1ccc(O)cc1 (configuration not stated)	42 to 43
COC(=O)c1ccc(OCCNC(=O)C2Cc3ccccc3N2S(=O)(=O)c2ccc(-c3ccc(F)cc3OC)cc2)cc1F (configuration not stated)	73 to 80
COC(=O)NC1CCc2sccc2C1 (configuration not stated)	108 to 109

Compound	melting point [°C]
Cn1cccc1C(=O)NCc1cccc2c1C(=O)N(C1CCC(=O)NC1=O)C2=O (configuration not stated)	> 260
Nc1nc(NC2CC2)c2ncn([C@@H]3C[C@H](CO)[C@@H](O)C3)c2n1	174 to 176
CC=CCN(Cc1cc(C)ccc1C)c1ncnc2c1ncn2C1OC(CO)C(O)C1O (configuration not stated)	125 to 127
N#CC1c2ccccc2-c2ccccc21	152 to 154
CC#CCOc1cc(Oc2c(F)cccc2F)ncn1	79.8
N#Cc1cc(N2C(=O)CC(C(F)(F)F)CC2=O)c(F)cc1Cl	210 to 212
COc1ccccc1[C@@]1(O)[C@H](O)CC(c2ccccc2)(c2ccccc2)[C@@H]2CN(C(=O)Cc3ccccc3N3CCCC3)C[C@@H]21 (racemic)	236
CCOC(=O)C1(C)ON=C(C2(C)CC(c3ccc(OC)c(OC4CCCC4)c3)=NO2)O1 (configuration not stated)	139 to 140
CCOC(=O)N1c2cc(OC)c(OC)cc2C(=O)C(=CN(C)C)C1C (configuration not stated)	130 to 131
CN1C(=O)COc2cc(S(=O)Cc3ccccc3)ccc21 (configuration not stated)	133 to 135
N#Cc1cnn2c(C(F)(F)F)cc(-c3ccc(Cl)cc3Cl)nc12	180
CCOC(=O)C1CC(=O)c2cc(C(C)(C)C)cc(C(C)(C)C)c2O1 (configuration not stated)	61 to 63
CC(=O)ONC(=N)c1ccc(-c2ccc(-c3ccc(C(=N)NOC(C)=O)cc3C)o2)nc1	226 to 229
CCOc1cc(N(CC)CC)ccc1C=O	58 to 59
CNC(=O)Oc1ccc(NC=O)c2c1CCCC2	165 to 166
CC(=O)C1CCC2C3CCC4CC(OC(=O)OCC(Cl)(Cl)Cl)CCC4(C)C3C(NC(=O)OCC(Cl)(Cl)Cl)CC12C (configuration not stated)	174 to 176
CC(=O)OC[C@H]1OC(O)[C@H](OC(C)=O)[C@@H](F)[C@@H]1OC(C)=O (some centres not stated)	115 to 120
CN1C(c2ccc(NS(C)(=O)=O)cc2)NCc2ccccc2C1c1ccccc1 (configuration not stated)	124 to 126
O=c1cc(C(F)(F)F)c2ccc(NCc3ccccc3)cc2o1	136 to 137

Compound	melting point [°C]
CCOC(=O)/C(C)=C(/C)c1cn(C(c2ccccc2)(c2ccccc2)c2ccccc2)cn1	166 to 168
O=C1Nc2ccccc2CCC1Cl (configuration not stated)	163 to 167
O=C(O)C(=O)c1ccc(SCCOC2CCCCCCC2)cc1	84 to 85
COc1cccc(N(c2ccccc2)c2ccc(-c3ccc(N(c4ccccc4)c4cccc(OC)c4)cc3)cc2)c1	120 to 125
CC(=O)Oc1cc(C(=O)O)cc([N+](=O)[O-])c1OC(C)=O	126 to 127
C=C(C#N)C(=O)NCCCc1ccccc1	83
Cc1ccc(OCC(O)CNC(C)C)c([N+](=O)[O-])c1[N+](=O)[O-] (configuration not stated)	122 to 124
Cc1ccc(-c2ncc(N(C)CCCCO)nc2-c2ccc(C)cc2)cc1	94 to 96
CC(C)NC(=O)NOCc1nc2c(N)nc3ccccc3c2n1CC(C)(C)O	231 to 233
Cc1cc2nc3c(nc2cc1[N+](=O)[O-])SC(=C(C#N)C#N)S3	283 to 284
COc1cc(NC(=O)NC2CC(O)CC2N2CCC(Cc3ccc(Cl)cc3)CC2)cc(OC)c1OC (configuration not stated)	81 to 84
O=C1c2ccccc2C(=O)c2sc(-c3ccc(CO)o3)nc21	> 260
O=[N+]([O-])c1c(O)c(O)cc2c1C(=NO)CC2	200 to 201
Cc1noc(NS(=O)(=O)c2ccccc2-c2cc3ccccc3n2S(=O)(=O)c2ccccc2)c1C	207 to 209
COC(=O)c1cc2c(s1)[C@@H](N1CCCCC1=O)[C@H](O)C(C)(C)O2 (relative stereo)	104 to 106
O=C1N[C@H](C(=O)NCCO[N+](=O)[O-])[C@@H](c2ccccc2)O1	122 to 124
CC(=O)SCCC(=O)N1[C@@H](c2ccccc2O)SC[C@H]1C(=O)N(c1ccccc1)[C@@H](C)C(=O)O	91 to 95
O=C(O)CC(Sc1nc2ccccc2s1)C(=O)O (configuration not stated)	165 to 168
NS(=O)(=O)c1cc(Br)cc2c1OS(=O)(=O)C=C2	224 to 228

Further lines, results first:

melting point [°C]	Compound
45 to 47	CC(O)CN1CCC(c2noc3cc(F)ccc23)CC1 (configuration not stated)
126 to 130	CC(C)CC(C=O)NC(=O)C(Cc1c[nH]cn1)NC(=O)C1Cc2c([nH]c3ccccc23)CN1C(=O)OCc1ccccc1 (configuration not stated)
175 to 176	COc1cccc2c1CCC[C@H]2NC(=O)c1cccc(Cl)c1O
79.2	NC(=O)C1CN(Cc2ccccc2)CCN1CCCC(c1ccc(F)cc1)c1ccc(F)cc1 (configuration not stated)
70 to 71	Nc1ccccc1Sc1ccc2c(c1)OCC(=O)N2
99 to 100	CCC=CC(c1cc(F)ccc1F)S(=O)(=O)c1ccc(Cl)cc1 (configuration not stated)
166 to 168	COCCOC(=O)c1cc(C(=O)NOC)c(O)c2ncc(Cc3ccc(F)cc3)cc12
178	O=C(NCc1ccc(C(F)(F)F)cc1)Nc1cccc2[nH]ccc12
164 to 166	CC1(C)Cc2ccc(C#N)cc2N(C(=O)Nc2cccnc2)C1
118 to 120	CC1=C(C(=O)OCCN2CCCCC2)C(c2ccccc2C(F)(F)F)c2c(ccnc2OC(C)C)N1 (configuration not stated)
131 to 133	OCCCc1ccc2ccn(C3CCN(CCc4ccc(F)cc4)CC3)c2c1
> 220	Nc1cccc(-c2ccc(CCN3CCN(C4CCc5ccccc5C4)CC3)cc2)n1 (configuration not stated)
260 to 262	O=C1NC(c2ccccc2)c2cc(Cl)ccc2-n2nc(CO)cc21 (configuration not stated)
205 to 206	CCCCc1ccc(C(=O)Oc2ccc(C(=O)O)cc2)cc1C12CC3CC(CC(C3)C1)C2
125 to 128	CCC(=O)CN1C(=O)C(NC(=O)Nc2cccc(C)c2)N=C(C)c2cccc(C)c21 (configuration not stated)
206 to 207	O=C(Nc1ccc(-c2ccc3c(NC(=O)c4ccccc4)n[nH]c3c2F)cc1)Nc1cc(C(F)(F)F)ccc1F
75 to 78	CCCn1nc(C(C)C)c(C(=O)O)c1Cc1ccc(-c2ccccc2NS(=O)(=O)C(F)(F)F)cc1
155 to 159	Cc1c(Cl)cc(-c2ccc(OC(=O)N3CCOCC3)nn2)cc1Cl
207 to 209	CC1CC(=O)NN=C1c1ccc(N=Cc2ccccc2O)cc1 (configuration not stated)
> 300	O=C(Nc1ccc(C(=O)O)cc1)OCc1cn(-c2cc3cc(C(=O)O)c(=O)[nH]c3cc2[N+](=O)[O-])cn1

melting point [°C]	Compound
291 to 292	O=C(O)c1ccc(Cn2cnc3ccc(Cl)c(C(=O)O)c32)cc1
113 to 115	COc1cc(C)nc(OC)c1NC(=O)CN1CCN(CCSc2nc3ccccc3o2)CC1
288 to 289	COC(=O)c1c(-c2ccccc2C)c2cc(C)c(C)cc2[nH]c1=O
154 to 155	O=C1CCCN1CCc1c2ccccc2n2c1[nH]c(=O)c1ccccc12
115 to 118	O=CC1C(c2ccc(F)cc2)CCC12C=Cc1ccccc12 (configuration not stated)
110 to 112	CCOC(=O)CC(c1cccnc1)N1CCN(CCCOc2ccc(C#N)cc2)C(=O)C1=O (configuration not stated)
181 to 183	CC(C)(C)c1ccc2c(O)c(-c3ccccc3)sc2n1
238 to 241	NC1=C(N=O)C(=O)N2CCN=C2N1Cc1ccc(Cl)cc1
232 to 236	O=C(O)c1cc(-c2ccccc2)cc2c(-c3ccccc3)c(Br)oc12
109	CC(=O)N1CCC(C)(C)c2cccc(CCCN3CCN(c4nsc5ccccc45)CC3)c21
142 to 144	O=C(NO)c1ccc(OC(=O)C2(c3ccccc3)CCCCC2)cc1
105 to 106	O=C(c1nc2ccc(O)cc2[nH]1)N1CCC(=Cc2ccc(F)cc2)CC1
176 to 179	O=C1c2ccccc2C(=O)N1c1cccc(Br)c1
221 to 223	CC1(c2ccc(Br)cc2)Cc2cc(O)c(Cl)c(Cl)c2C1=O (configuration not stated)
110	CCN(C)C(=O)c1cnn(-c2ccc(Cl)cc2)c1-c1ccc(OC)c(OC)c1
> 300	O=C(O)c1c2c(nc3ccc(F)cc13)-c1ccc(-c3cccc(F)c3)cc1CCC2
323 to 327	COc1ccc2nc3cc(C(=O)O)ccn3c(=O)c2c1
153 to 156	CNC(=O)c1cc(NC(=O)c2ccc(C)c(Nc3nccc(N4C=CC=NC4)n3)c2)cc(N2CCOCC2)c1
87 to 89	O=C(NCC1Cc2cccc(-c3ccc(Cl)cc3Cl)c2O1)OCc1ccccc1 (configuration not stated)
186 to 189	O=c1oc2ccccc2c(O)c1Sc1ccccc1
